We go through ten molecules from patent publication US20210348204A1, “Systems, Methods, And Compositions For The Production of Water-Soluble Terpenes Derived From Cannabis Plants” (Trait Biosciences, Inc., priority 2018, published 2021).

The subject of series [1] is cannabinoid receptor. Particulars: cited from earlier work.
For series [2], the system named is onychomycosis. As to conditions: comparable to ciclopiroxolamine and sulcanazole; cited from earlier work.
In series [3] the test system is platelet aggregation. As to conditions: cited from earlier work.
In series [4] the test system is Dermatophytes. Particulars: cited from earlier work.
For series [5] the following is noted: via inhalation; cited from earlier work.
For series [6] the following is noted: in vivo; cited from earlier work.
The subject of series [7] is breast cancer cells. Particulars: cited from earlier work.
Series [8] addresses T1, 5-HTEA (Mus musculus, UniProt Q64264).
T1 sequence (Q64264 1-421): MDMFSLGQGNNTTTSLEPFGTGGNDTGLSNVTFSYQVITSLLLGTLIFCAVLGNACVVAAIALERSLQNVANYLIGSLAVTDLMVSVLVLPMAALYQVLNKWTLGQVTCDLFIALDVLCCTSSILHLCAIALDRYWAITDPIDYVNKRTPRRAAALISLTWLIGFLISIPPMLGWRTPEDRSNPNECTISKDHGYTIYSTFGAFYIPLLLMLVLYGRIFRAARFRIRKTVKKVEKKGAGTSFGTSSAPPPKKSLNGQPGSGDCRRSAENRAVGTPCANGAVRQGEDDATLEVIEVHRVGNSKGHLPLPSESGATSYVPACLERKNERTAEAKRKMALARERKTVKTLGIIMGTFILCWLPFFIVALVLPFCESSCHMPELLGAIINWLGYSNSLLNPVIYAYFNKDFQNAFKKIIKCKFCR
Particulars: via 5-HTEA; cited from earlier work.

Series [9] deals with acne bacteria. As to conditions: cited from earlier work.
For series [10] the following is noted: on inhalation in mice; cited from earlier work.
For series [11], the system named is Leishmania. Particulars: cited from earlier work.
For series [12], the target named is adenosine Aza (Mus musculus, UniProt Q60613). As to conditions: via adenosine Aza; cited from earlier work.
Chain of adenosine Aza (Q60613 whole entry): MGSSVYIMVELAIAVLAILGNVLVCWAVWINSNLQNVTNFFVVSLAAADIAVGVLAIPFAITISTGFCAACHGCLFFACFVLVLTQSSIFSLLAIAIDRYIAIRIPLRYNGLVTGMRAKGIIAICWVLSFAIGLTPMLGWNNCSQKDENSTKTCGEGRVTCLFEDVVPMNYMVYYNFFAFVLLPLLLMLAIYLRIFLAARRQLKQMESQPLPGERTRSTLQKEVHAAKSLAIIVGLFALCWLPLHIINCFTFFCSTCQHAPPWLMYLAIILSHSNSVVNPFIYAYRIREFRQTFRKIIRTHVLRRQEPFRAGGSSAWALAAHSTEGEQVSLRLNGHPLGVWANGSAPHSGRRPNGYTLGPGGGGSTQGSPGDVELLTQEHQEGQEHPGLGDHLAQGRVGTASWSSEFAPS
Series [13] has as its system glutamate. Particulars: in vivo; cited from earlier work.
The conditions of series [14]: in vivo; cited from earlier work. This is another data set of the same source.
The test system of series [15] is Pichia pastoris yeast cells. The experiment in a line: Yeast cell growth after feeding transgenic Pichia cultures with individual terpenes. As to conditions: terpene 100 μg/mL final concentration, cultures harvested 2 days post-feeding.
For series [16] the following is noted: in humans; cited from earlier work.
For series [17], the target named is Acetylcholinesterase (Homo sapiens, UniProt P22303). As to conditions: aiding memory; cited from earlier work.
Chain of Acetylcholinesterase (P22303 32-614): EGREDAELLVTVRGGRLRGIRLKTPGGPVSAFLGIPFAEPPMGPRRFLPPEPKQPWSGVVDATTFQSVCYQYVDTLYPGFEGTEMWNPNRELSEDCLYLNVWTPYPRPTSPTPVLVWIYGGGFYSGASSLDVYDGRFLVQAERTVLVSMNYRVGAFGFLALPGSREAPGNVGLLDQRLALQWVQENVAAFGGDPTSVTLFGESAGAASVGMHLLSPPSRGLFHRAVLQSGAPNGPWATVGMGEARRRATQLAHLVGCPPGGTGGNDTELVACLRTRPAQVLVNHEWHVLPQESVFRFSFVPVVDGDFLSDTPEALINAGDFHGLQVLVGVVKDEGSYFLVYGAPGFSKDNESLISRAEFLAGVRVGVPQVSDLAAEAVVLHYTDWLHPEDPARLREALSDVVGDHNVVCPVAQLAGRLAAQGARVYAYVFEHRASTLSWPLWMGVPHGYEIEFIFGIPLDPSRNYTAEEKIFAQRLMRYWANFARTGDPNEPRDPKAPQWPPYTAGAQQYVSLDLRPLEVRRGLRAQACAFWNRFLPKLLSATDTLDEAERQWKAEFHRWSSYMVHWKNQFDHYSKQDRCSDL
For series [18], the system named is PGE-3. Particulars: via PGE-3; cited from earlier work.
For series [19], the system named is malaria. Particulars: cited from earlier work.
The conditions of series [20]: in vivo; cited from earlier work. This is another data set of the same source.
In series [21] the test system is PGE-1. Particulars: via PGE-1, comparable phenylbutazone; cited from earlier work.
In series [22] the target is CB2 (Homo sapiens, UniProt P34972). As to conditions: cited from earlier work.
Chain of CB2 (P34972 whole entry): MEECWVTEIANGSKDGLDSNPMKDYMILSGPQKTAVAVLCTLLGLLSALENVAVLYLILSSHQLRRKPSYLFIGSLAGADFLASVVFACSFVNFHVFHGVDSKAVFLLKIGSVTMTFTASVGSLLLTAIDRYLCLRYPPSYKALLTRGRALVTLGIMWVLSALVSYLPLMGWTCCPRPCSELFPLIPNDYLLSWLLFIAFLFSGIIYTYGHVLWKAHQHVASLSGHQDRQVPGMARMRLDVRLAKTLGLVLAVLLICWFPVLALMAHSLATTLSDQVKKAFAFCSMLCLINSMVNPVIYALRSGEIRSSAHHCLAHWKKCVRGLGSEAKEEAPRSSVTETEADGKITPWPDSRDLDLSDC
The conditions of series [23]: antagonized by naloxone; cited from earlier work.
Series [24] relates to PGE-2. Particulars: via PGE-2; cited from earlier work.
For series [25] the following is noted: in vivo; cited from earlier work. The source holds these as a separate data set.

As to `C=C(C)[C@@H]1CCC(C)=C[C@H]1c1c(O)cc(CCCCC)cc1O` [CBD, cannabidiol], the “Affinity for the cannabinoid receptor (in words)” value in series [1] is recorded as “do not have significant affinity”.

Turning to `C=C1CC[C@H]2O[C@]2(C)CC[C@@H]2[C@@H]1CC2(C)C` [Caryophyllene Oxide], the “Antifungal activity in onychomycosis” value in series [2] was “Antifungal in onychomycosis comparable to ciclopiroxolamine and sulcanazole”. Also, the “Effect on platelet aggregation” value in [3] is on record as “Decreases platelet aggregation”.

For the molecule `C=C(C)[C@H]1CC=C(C)CC1` [Limonene], in [4], the Activity against dermatophytes entry is “Dermatophytes (Sanguinetti et al., 2007;”. The AD/immunostimulant activity entry in [5] is reported as “Potent AD/immunostimulant via inhalation”. Also, the “Activity in gastro-aesophageal reflux” value in series [6] is listed as “Gastro-aesophageal reflux (Harris, 2010)”. Besides, the “Apoptosis of breast cancer cells” value in [7] is on record as “Apoptosis of breast cancer cells (Vigushin”. The Anxiolytic activity entry in series [8] is reported as “Anxielytic”. In addition, in series [9], the “Activity against acne bacteria” value was “Active against acne bacteria (Kim et al., 2008)”.

With `C=CC(C)(O)CCC=C(C)C` (stereo not drawn) [Linalool], the Sedative activity result in [10] was “Sedative on inhalation in mice”. The Anti-leishmanial activity result in [11] is “Potent anti-leshmarial (do Socorro et al.,”. Also, in series [12], the Analgesic activity result is given as “Analgesic via adenosine Aza (Peana et al.,”. Further, the Anticonvulsant/anti-glutamate activity result in series [13] was “Anticonvulsant/anti-glutamate (Elisabetsky”. The Anti-anxiety activity entry in [14] is “Anti-anxiety”.

In the case of `CC(C)=CCC[C@](C)(O)[C@@H]1CC=C(C)CC1` [alpha-bisabolol], the “Effect on yeast cell growth rates” value in series [15] is reported as “no observed negative effect”.

As for `CC(C)=CCCC(C)CCO` (stereo not drawn) [citronellol], the “Effect on yeast cell growth rates” value in series [15] is “no observed negative effect”.

As to `CC(C)=CCC/C(C)=C\CO` [nerol], the “Effect on yeast cell growth rates” value in series [15] is “no observed negative effect”.

Regarding `CC1=CCC2CC1C2(C)C` (stereo not drawn) [α-Pinene], the Bronchodilatory activity result in [16] is given as “Bronchodilatory in humans”. Moreover, the Acetylcholinesterase inhibition result in series [17] is “Acetylcholinesterase inhibitor, aiding memory”. For the same molecule, the Anti-inflammatory activity entry in series [18] was “Anti-inflammatory via PGE-3”.

Turning to `C=C1CC/C=C(\C)CC[C@@H]2[C@@H]1CC2(C)C` [β-Caryophyllene], the Anti-malarial activity entry in [19] is listed as “Anti-malarial”. Also, the Gastric cytoprotective activity result in series [20] is “Gastric cytoprotective”. Besides, the “A1 (anti-inflammatory) activity” value in series [21] is on record as “A1 via PGE-1 comparable phenylbutazone”. Further, in series [22], the “Selective CB2 agonist (concentration given)” value is recorded as 100 nM.

For the molecule `C=CC(=C)CCC=C(C)C` [β-Myrcene], the Analgesic activity result in series [23] was “Analgesic, antagonized by naloxone”. The Blocking of inflammation result in series [24] is reported as “Blocks inflammation via PGE-2”. Further, in [25], the “Sedating, muscle relaxant, hypnotic activity” value is “Sedating, muscle relaxant, hypnotic (da Vale”.
